Patent US20240025856A1, “1,2,3,4-TETRAHYDROQUINOLINE DERIVATIVES AS INHIBITORS OF THE YAP/TAZ-TEAD ACTIVATION FOR TREATING CANCER” (KATHOLIEKE UNIVERSITEIT LEUVEN, priority 2020, published 2024)

Tests used:
[1] = tested on: YAP/TAZ-TEAD transcription; assay: Reporter gene assay for measuring the inhibition of YAP/TAZ-TEAD transcription (TEAD-responsive element luciferase reporter in Hek293T cells); type: cell-based; settings: Homo sapiens, HEK-293T, 24 h, Hek293T cells transiently transfected with TEAD-responsive element luciferase reporter; 24 hours incubation
Method in brief: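 Readout is SteadyLite luciferase luminescence from a TEAD-responsive element reporter transiently transfected into Hek293T cells, exposed to compounds for 24 h at 37 °C/5% CO2. IC50 derived from percent inhibition, scaled between vehicle basal activity (0%) and positive control inhibitor (100%).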

NCI-1H226 = assay: Mesothelioma cell line proliferation assay, H226 (ATPlite); type: cell-based; settings: Homo sapiens, NCI-H226, 144 h, 6 days with compound
Experimental: (§1) Mesothelioma cell lines, NCI-1H226 and NCI-1H2052 (all sourced from the ATCC cell culture collection) are plated in 96-well plates (Corning® 96 Well White Polystyrene Microplate clear flat bottom, white polystyrene (TC-Treated)), at 1500 cells/well in full medium (RPMI 1640 ATCC modification with L-glutamine, HEPES, Phenol Red, Sodium Pyruvate, High glucose, Low sodium bicarbonate and 10% fetal bovine serum). Cells are incubated overnight at 37° C. in an incubator with 5% C02. Then compounds, dissolved in DMSO, are added in dose-response. Cells are incubated with compound dilutions for another 6 days at 37° C. in an incubator with 5% C02. Cell viability is quantitated using the ATPlite kit (Perkin-Elmer) and the luminescence is read-out using an Envision instrument (Perkin-Elmer). The amount of relative light units produced using the ATPlite kit is used to calculated percent of inhibition.
(§2) The activities of some example compounds are depicted in the table below. The activity ranges A, B and C refer to EC50 values in the mesothelioma cell line proliferation assay as described as follows: “A”: EC50<1 μM; “B”: 1 μM s EC50≤10 μM and “C”: EC50≥10 μM; NT: not tested.

NCI-H226 tumor cells = assay: In vivo efficacy in a subcutaneous human lung cancer xenograft model (NCI-H226 mesothelioma); parameters: species or system Female BALB/c Nude Mice; settings: 100 mg/kg, p.o., BID × 21 days
Experimental: The NCI-H226 tumor cells were maintained in vitro with RPMI-1640 medium supplemented with 10% fetal bovine serum at 37° C. in an atmosphere of 5% CO2 in air. The cells in exponential growth phase were harvested and the cell numbers were quantitated by hemocytometer and cell viability was quantified by Trypan Blue counting before tumor inoculation. Balb/c nude mouse were inoculated with subcutaneously in the right front flank regions with 1×10^7 of NCI-H226 tumor cells in 0.1 mL of PBS mixed with 0.1 ml of Matrigel (1:1) for tumor development. All animals were randomized based on the tumor sizes as well as body weights and randomly allocated to the different study groups (8 mice per group). The randomization started when the mean tumor size at the right rear flank region had reached approximately 172 mm^3. The date of randomization was denoted as Day 0.
Cpd. No. 084 was formulated in Vehicle 1 (PEG400 (40%)+PG (30%)+WFI (30%)) as a 10 mg/ml solution, and dosed orally, twice daily, using 10 μl/g (final dose is 100 mg/kg) for 21 days. Cpd. No. 001 was formulated in Vehicle 2 (PEG400 (65%)+PG (20%)+WFI (15%)) as a 10 mg/ml solution, and dosed orally, twice daily, using 10 μl/g (final dose is 100 mg/kg) for 21 days. After tumor cell inoculation, the animals were checked daily for morbidity and mortality. At the time of routine monitoring, the animals were checked for any effects of tumor growth and treatments on behavior such as mobility, food and water consumption, body weight gain/loss (body weight was measured at least two times per week), and any other abnormalities. Mortality and observed clinical signs were recorded for individual animals. Tumor volumes were measured at least two times weekly in two dimensions using a caliper, and the volume was expressed in mm^3 using the formula: V=(L×W×W)/2, where V is tumor volume, L is tumor length (the longest tumor dimension) and W is tumor width (the longest tumor dimension perpendicular to L).
Tumor growth inhibition (TGI) was used as an indicator of antitumor activities, and was calculated from the relative tumor volumes of the control and treatment groups due to the variance of tumor volumes among groups at Day 0. TGI (%)=(1-T/C)×100%; T/C=MTVt/MTVc, MTVt: mean tumor volume in the treatment groups at a specific measurement day, MTVc: mean tumor volume in the control group at a specific measurement day. Moreover, the difference of TGIs between control and treatment groups was analyzed at a measurement day when all or most of the mice in the control groups were alive. In addition, body weight changes over time in each group were used as an index to evaluate the tolerability of test drugs, and were calculated from the average percentage of body weight changes of each individual mouse relative to their initial body weight at randomization using the following formula: group BW %=mean of ((BWt−BW0)/BW0×100%), BWt: body weight at Day t, BW0: body weight at Day 0.
To compare relative tumor volumes of different groups at a pre-specified day, we first used Bartlett's test to check the assumption of homogeneity of variance across all groups. When the p-value of Bartlett's test is >0.05, we run one-way ANOVA to test overall equality of means across all groups. If the p-value of the one-way ANOVA is <0.05, we further perform post hoc testing by running Tukey's HSD (honest significant difference) tests for all pairwise comparisons, and Dunnett's tests for comparing each treatment group with the vehicle group. When the p-value of Bartlett's test is <0.05, we run Kruskal-Wallis test to test overall equality of medians among all groups. If the p-value of the Kruskal-Wallis test is <0.05, we further perform post hoc testing by running Conover's non-parametric test for all pairwise comparisons or for comparing each treatment group with the vehicle group, both with single-step p-value adjustment. All tests were two-sided unless otherwise specified, and p-values<0.05 were regarded as statistically significant. […]

NCI-1H2052 = assay: Mesothelioma cell line proliferation assay, H2052 (ATPlite); type: cell-based; settings: Homo sapiens, NCI-H2052, 144 h, 6 days with compound, read-out: H2025 (EC50)
Experimental: as §1, §2

[2] = day 20, against the compound's own vehicle group

SMILES | IC50 [1] [nM] | EC50 (NCI-1H226) [nM] | anti-tumor activity in the xenograft mesothelioma model (NCI-H226 tumor cells) | Mean Tumor Volume (mm^3) on day 20 (NCI-H226 tumor cells; day 20, 8 mice per group) | T/C (%) (NCI-H226 tumor cells; [2]) | TGI (%) (NCI-H226 tumor cells; [2]) | EC50 (NCI-1H2052) [nM]
C=CC(=O)NCC1Cc2ccccc2N(c2ccc(C(F)(F)F)cc2)C1 (stereo not drawn) [compound 084, N-((1-(4-(trifluoromethyl)phenyl)-1,2,3,4-tetrahydroquinolin-3-yl)methyl)acrylamide] | < 1000 | < 1000 | highly statistically significant and strong anti-tumor activity | 165.82 ± 15.42 (8) mm^3 | 38.95 | 61.05 | 
C=CC(=O)NC1Cc2c(NCCOC)cccc2N(c2ccc(C(F)(F)F)cc2)C1 (stereo not drawn) [compound 077, N-(5-((2-methoxyethyl)amino)-1-(4-(trifluoromethyl)phenyl)-1,2,3,4-tetrahydroquinolin-3-yl)acrylamide] | < 1000 | < 1000 |  |  |  |  | < 1000
C=CC(=O)NC1Cc2cccnc2N(c2ccc(C(F)(F)F)cc2)C1 (stereo not drawn) [compound 081, N-(1-(4-(trifluoromethyl)phenyl)-1,2,3,4-tetrahydro-1,8-naphthyridin-3-yl)acrylamide] | < 1000 | < 1000 |  |  |  |  | < 1000
C=CC(=O)NC1Cc2nc(N)ccc2N(c2ccc(C(F)(F)F)cc2)C1 (stereo not drawn) [Cpd. No. 140, N-(6-amino-1-(4-(trifluoromethyl)phenyl)-1,2,3,4-tetrahydro-1,5-naphthyridin-3-yl)acrylamide] | < 1000 | < 1000 |  |  |  |  | < 1000
C=CC(=O)NC1Cc2ccccc2N(c2ccc(C(F)(F)F)c(F)c2)C1 (stereo not drawn) [compound 028, N-(1-(3-fluoro-4-(trifluoromethyl)phenyl)-1,2,3,4-tetrahydroquinolin-3-yl)acrylamide] | < 1000 | < 1000 |  |  |  |  | < 1000
C=CC(=O)NC1Cc2ccncc2N(c2ccc(C(F)(F)F)cc2)C1 (stereo not drawn) [compound 083, N-(1-(4-(trifluoromethyl)phenyl)-1,2,3,4-tetrahydro-1,7-naphthyridin-3-yl)acrylamide] | < 1000 | < 1000 |  |  |  |  | < 1000
C=CC(=O)NC1Cc2ccccc2N(c2ccc(C(F)(F)F)cc2F)C1 (stereo not drawn) [compound 029, N-(1-(2-fluoro-4-(trifluoromethyl)phenyl)-1,2,3,4-tetrahydroquinolin-3-yl)acrylamide] | < 1000 | < 1000 |  |  |  |  | < 1000
C=CC(=O)NC1Cc2ccccc2N(c2ccc(C#N)cc2)C1 (stereo not drawn) [compound 142, N-(1-(4-cyanophenyl)-1,2,3,4-tetrahydroquinolin-3-yl)acrylamide] | < 1000 | < 1000 |  |  |  |  | < 1000
